This note sets out measurements from patent US8785184B2, “Differentiation of human embryonic stem cells” (Janssen Biotech, Inc., priority 2009, dated 2014).

The test system of assay [1] is human embryonic stem cells line H1. The conditions noted are these: stage 4; immunocytochemistry (FIG. 6). How it is done:
(§1) Briefly, cells of the human embryonic stem cells line H1 were cultured on […]™ coated dishes (1:30 dilution) with RPMI medium+2% BSA+100 ng/ml activin A+20 ng/ml WNT-3a+8 ng/ml of bFGF for one day followed by treatment with RPMI media+2% BSA+100 ng/ml activin A+8 ng/ml of bFGF for an additional two days (Stage 1), then • a. DMEM/F12+2% BSA+50 ng/ml FGF7 for three days (Stage 2), then • b. DMEM-High glucose+1% B27+50 ng/ml FGF7+0.25 μM Cyclopamine-KAAD+2 μM Retinoic acid (RA)+100 ng/ml of Noggin+20 ng/ml Activin A for four days (Stage 3), then • c. DMEM-High glucose+1% B27+100 ng/ml Noggin+1 μM ALK5 inhibitor II for three days (Stage 4), or • d. DMEM-High glucose+1% B27 only for three days (Stage 4).

Assay [2] has as its system human embryonic stem cell line H1. Briefly: Immunofluorescence analysis of cultures at stage 3 day 4 (Example 1). The assay is classed as cell-based. How it is done: (§2) Cells of the human embryonic stem cell line H1 were cultured on MATRIGEL-coated plates (1:30 dilution), and differentiated into pancreatic endocrine precursor cells using the following protocol: • a.
(§3) Cultures were sampled in duplicate on stage 3 day 4, and analyzed for expression of pancreatic markers using real-time PCR. Cultures also were fixed in parallel for immunofluorescence analysis.

The test system is the same in assay [3]. Kind of assay: Real-time PCR of pancreatic markers at stage 3 day 4 (Example 1). Format: cell-based. The protocol:
Cultures were sampled in duplicate on stage 3 day 4, and analyzed for the expression of pancreatic markers using real-time PCR.
as §2, §3
(In general: In qPCR the cycle at which signal appears reflects the starting amount.)

Assay [4] has as its system human embryonic stem cells line H1. Conditions: stage 4 day 3. The protocol: as §1
Pancreatic endocrine precursor cells express NGN3.

[5] abbreviates: 1 μM ALK5 inhibitor II + 100 ng/ml Noggin vs basal medium (FIG. 5).
[6] abbreviates: 1 μM ALK5 inhibitor II + 100 ng/ml Noggin vs basal medium (FIG. 5 panel b).
The mark [7] stands for this setting: replacement of activin A in treatment 2, four days, stage 3 day 4 (FIG. 4).

As to `Cc1cccc(-c2[nH]ncc2-c2ccc3ncccc3n2)n1` [Alk5 inhibitor II, ALK5 inhibitor II], the “number of cells positive for NGN3 protein” value in assay [1] is given as “increase”. Moreover, the “number of NGN3 expressing cells” value in assay [2] (1 μM ALK5 inhibitor II added to treatment 1 (Table 1, FIG. 2 panel f)) is “significantly increased”. For the same molecule, the PDX1 expression result in assay [3] (stage 3 day 4, 1 μM ALK5 inhibitor II added to treatment 1) was “No significant impact”. For the same molecule, the “level of expression of NKX6.1” value in assay [3] (stage 3 day 4, 1 μM ALK5 inhibitor II added to treatment 1, compared with treatment 1) was “decrease”. Besides, in assay [4] (setting [5]), the NGN3 expression entry is recorded as “significant increase”, the “expression of NEUROD” value was “up regulation”, the “expression of NKX2.2” value is recorded as “up regulation” and the “expression of PAX4” value is “up regulation”. Moreover, in assay [4] (setting [5]), the “expression of PAX6” value was “up regulation” and the “expression of PTF1 alpha” value was “increase”. Also, in assay [4] (setting [6]), the “expression of NKX6.1” value is reported as “did not appear to affect” and the “expression of PDX1” value was “did not appear to affect”.
Consider GDF-8, for which, in assay [3] (setting [7]), the PDX1 expression result is “No significant impact”, the “expression of NGN3” value is on record as “down-regulation” and the “expression of NKX6.1” value is listed as “increase”.

B1: activin B (protein, UniProt P09529 293-407, looked up)
Inhibin beta B chain: GLECDGRTNLCCRQQFFIDFRLIGWNDWIIAPTGYYGNYCEGSCPAYLAGVPGSASSFHTAVVNQYRMRGLNPGTVNSCCIPTKLSTMSMLYFDDEYNIVKRDVPNMIVEECGCA
modifications: Inhibin beta B chain
notes: TGFβ receptor agonist
In the case of B1, in assay [3] (setting [7]), the PDX1 expression entry was “No significant impact”, the “expression of NGN3” value is reported as “down-regulation” and the “expression of NKX6.1” value is given as “increase”.

B2: activin A (protein, UniProt P08476 311-426, looked up)
Inhibin beta A chain: GLECDGKVNICCKKQFFVSFKDIGWNDWIIAPSGYHANYCEGECPSHIAGTSGSSLSFHSTVINHYRMRGHSPFANLKSCCVPTKLRPMSMLYYDDGQNIIKKDIQNMIVEECGCS
modifications: Inhibin beta A chain
notes: TGFβ receptor agonist (R&D Systems)
For the molecule B2, the “expression of NGN3” value in assay [2] (immunofluorescence (FIG. 2)) is “blocked the expression”. The “number of NKX6.1 expressing cells” value in assay [2] (immunofluorescence (FIG. 2), 20 ng/ml activin A added to treatment 1) was “significantly increased”. For the same molecule, in assay [3] (stage 3 day 4, 20 or 50 ng/ml activin A with FGF7, cyclopamine-KAAD, retinoic acid, Noggin (FIG. 1)), the NGN3 expression entry is “down-regulation”. Further, in assay [3] (stage 3 day 4, 20 or 50 ng/ml activin A with FGF7, cyclopamine-KAAD, retinoic acid, Noggin, compared to cells receiving no activin A (FIG. 1)), the NKX6.1 expression result is “dramatic increase”.

B3: GDF-11 (protein, UniProt O95390 299-407, looked up)
Growth/differentiation factor …: NLGLDCDEHSSESRCCRYPLTVDFEAFGWDWIIAPKRYKANYCSGQCEYMFMQKYPHTHLVQQANPRGSAGPCCTPTKMSPINMLYFNDKQQIIYGKIPGMVVDRCGCS
notes: TGFβ receptor agonist
Consider B3, for which, in assay [3] (setting [7]), the PDX1 expression result is “No significant impact”, the “expression of NGN3” value is on record as “down-regulation” and the “expression of NKX6.1” value is “increase”.

B4: TGFβ2 (protein, UniProt P61812 303-414, looked up)
Transforming growth factor …: ALDAAYCFRNVQDNCCLRPLYIDFKRDLGWKWIHEPKGYNANFCAGACPYLWSSDTQHSRVLSLYNTINPEASASPCCVSQDLEPLTILYYIGKTPKIEQLSNMIVKSCKCS
notes: TGFβ receptor agonist
With B4, in assay [3] (setting [7]), the PDX1 expression result is “No significant impact”, the “expression of NGN3” value is “down-regulation” and the “expression of NKX6.1” value is given as “increase”.
